Test results as given in patent US7160894B2, “Tricyclic compound” (Asahi Kasei Pharma Corporation, priority 2003, dated 2007).

The molecules below were run on phosphorylated myosin regulatory light chain in neutrophils (assay: Action on amount of phosphorylated myosin regulatory light chain in the cells (Test Example 1)). Details: Neutrophil, 5 min; human neutrophils, reaction at 25° C. for 5 minutes; read-out: concentration at which the phosphorylation of myosin regulatory light chain is inhibited (IC50).
Type: cell-based
Protocol: A volume of 50 to 100 ml of peripheral blood collected from healthy volunteers was centrifuged by using Mono-Poly separator solution (Dainippon Pharmaceutical) to prepare a neutrophil containing fraction. The neutrophils were washed with PBS(−) and resuspended in Hanks' Balanced Salt Solution (HBSS+, Gibco) to prepare a cell suspension (8×10^6/ml). The cell suspension was diluted to 5×10^6/ml, introduced into Eppendorf tubes in a volume of 0.4 ml each, then 0.1 ml each of solutions of a test compound at various concentrations were added to the suspension and allowed to react at 25° C. for 5 minutes. After the reaction, 0.1 ml of trichloroacetic acid solution was added to each reaction, the reaction mixture was gently shaken and centrifuged at 12,000 rpm (4° C., 5 minutes), and the supernatant was removed. Subsequently, 3 μl of 1 M Tris solution was added to the residue, the mixture was further mixed with 50 μl of extraction buffer (8 M urea, 0.02% 2-mercaptoethanol, 0.002% bromophenol blue) and left stand at room temperature for 1 hour. Then, the reaction mixture was loaded on a spin column (0.45 μm, Millipore) to remove the insoluble solids and a sample buffer for SDS polyacrylamide gel electrophoresis (25 mM, Tris-HCl pH 6.8, 2.5% 2-mercaptoethanol, 2% sodium dodecylsulfate, 5% sucrose, 0.002% bromophenol blue as final concentrations) was added, and 10 μl of each sample was subjected to electrophoresis.
The gel after the electrophoresis was blotted on a nitrocellulose membrane (BioRad), blocked with 5% skim milk, and reacted successively with antibodies pLC1 (Sakurada K. et al, Am. J. Physiol., 274, C1563–C1572 (1998)), which specifically recognize the phosphorylated myosin regulatory light chain, and donkey anti-mouse IgG (Chemicon) conjugated with horseradish peroxidase. The band of the phosphorylated myosin regulatory light chain was detected on a film by using ECL Plus Kit (Amersham Pharmacia Biotech). This band was subjected to quantification using a densitometer. By using this value, the inhibitory ratio (%) for phosphorylation of the myosin regulatory light chain was calculated by using the following equation. Phosphorylation inhibition ratio (%)=1−(Band intensity of phosphorylated myosin regulatory light chain with addition of the test compound/Band intensity of phosphorylated myosin regulatory light chain without addition of the test compound)×100
Further, the phosphorylation inhibition ratio was calculated with changing the concentrations of the test compound, and a compound concentration providing an inhibition ratio of 50% was obtained as IC50.

**Q.** How did the IC50 turn out when `Clc1ncc2c3c(cccc13)N(C1CCNCC1)CC2` [Example 61, 6-Chloro-1-(piperidin-4-yl)-2,3-dihydro-1H-1,5-diazaphenalene] was run?
**A.** ≤ 40 µM

What follows are molecules tested on ovalbumin-induced constriction of respiratory tract (assay: Respiratory tract constriction suppressing action, intravenous administration (Test Example 3)). Details: ovalbumin-immunized guinea pigs, administered from cannula in hind leg vein, measured for 15 minutes.
Type: in vivo, Hartley guinea pigs
Protocol: Four-week old Hartley guinea pigs (male) were immunized by intraperitoneal administration of ovalbumin (Sigma, Grade V) in amounts of 1 mg for each animal on the day on which the experiment was started, 3 mg for each animal after 2 days, and 10 mg for each animal after 4 days. Twelve to fourteen days after the final immunization, the ovalbumin-immunized guinea pigs were anesthetized by intraperitoneal administration of about 40 mg/kg of pentobarbital (Somnopentyl), and the tracheas were taken out. Subsequently, a cannula (SP-110, Natsume) was inserted into each trachea, and one end of the cannula was connected to an artificial respirator (Model-b83, Harvard). The aeration conditions were set at 6 ml per kilogram and 60 times per 1 minute. Further, a cannula for medicament administration (JMS wing needle 23G 3/4) was inserted into a hind leg vein. Myoblock (Organon Technica) was administered in an amount of 0.5 mg/kg from the cannula inserted into the hind leg vein to stop the spontaneous breathing, and after 2 or 3 minutes, 0.3 mg/kg of ovalbumin was administered to induce constriction of respiratory tract. The increase of airway resistance value 2 minutes after the induction (measurement apparatuses: pressure transducer TR-603T, respiratory amplifier AR-601G, and recorder RTA-3100, Nihon Kohden Corp.) was confirmed to be above 80 cm H2O or higher, and then, a solution of a test medicament was administered from the cannula inserted into the hind leg vein, and the airway resistance value was continuously measured for 15 minutes after the administration to determine the effect.

**Q.** For `Cl.c1cc2c3c(cncc3c1)CCN2C1CCNCC1` [Example 11], which “improvement of constriction of respiratory tract (airway resistance value)” value (from here on “improvement”) is on record?
**A.** significantly improved the constriction of respiratory tract

**Q.** `Cl.NCCN1CCC(N2CCc3cncc4cccc2c34)CC1` [Example 14] was tested. Which “improvement” value did it give?
**A.** significantly improved the constriction of respiratory tract

**Q.** For `Cl.NCCCN1CCC(N2CCc3cncc4cccc2c34)CC1` [Example 15], which “improvement” value is on record?
**A.** significantly improved the constriction of respiratory tract

These molecules were tested on ovalbumin-induced constriction of respiratory tract (assay: Respiratory tract constriction suppressing action, administration by inhalation (Test Example 3)). Details: ovalbumin-immunized guinea pigs, 2 ml solution by inhalation over 5 minutes.
Type: in vivo, Hartley guinea pigs
Protocol: Four-week old Hartley guinea pigs (male) were immunized by intraperitoneal administration of ovalbumin (Sigma, Grade V) in amounts of 1 mg for each animal on the day on which the experiment was started, 3 mg for each animal after 2 days, and 10 mg for each animal after 4 days. Further, the respiratory tract constriction suppression action of the test compounds was also evaluated by inhalation. Twelve to fourteen days after the final sensitization, 10 mg/kg of pyrilamine (Sigma), 5 mg/kg of indomethacin (Wako), or 0.1 mg/kg of propranolol (Sigma) was intraperitoneally administered. Then, 30 minutes after the administration, a 0.1% ovalbumin aqueous solution was inhaled by using a pressurization type nebulizer (PARI-IS2) to induce constriction of the respiratory tract. Ten minutes after the induction, 2 ml of a solution of a test compound prepared at various concentrations was filled in the aforementioned nebulizer, and administered by inhalation over 5 minutes. After the administration of pyrilamine and other drugs, airway resistance value was continuously measured to determine effectiveness.

**Q.** How did the “improvement” value turn out when `Cl.c1cc2c3c(cncc3c1)CCN2C1CCNCC1` [Example 11] was run?
**A.** significantly improved the constriction of respiratory tract

**Q.** With `Cl.NCCN1CCC(N2CCc3cncc4cccc2c34)CC1` [Example 14] as the molecule, how does the “improvement” value read?
**A.** significantly improved the constriction of respiratory tract

**Q.** Which “improvement” value does the source give for `Cl.NCCCN1CCC(N2CCc3cncc4cccc2c34)CC1` [Example 15] here?
**A.** significantly improved the constriction of respiratory tract

What follows are molecules tested on intraocular pressure (assay: Intraocular pressure reducing action (Test Example 4)). Details: rabbit, 50 μl of aqueous solution dropped to the left eye.
Type: in vivo, Japanese white rabbit
Protocol: A Japanese white rabbit having a body weight of about 2 kg was placed in a positioner and naturalized for one week before the experiment. An ophthalmologic local anesthesant (Benoxil) was administered to the left eye, and then intraocular pressure was measured by using a tonometer (Classic 30, Solan). The initial value of the intraocular pressure was measured, then 50 μl of an aqueous solution of a test compound was dropped to the left eye at various concentrations, and the intraocular pressure was measured with passage of time.

**Q.** With `Cl.c1cc2c3c(cncc3c1)CCN2C1CCNC1` (stereo not drawn) [Example 1] as the molecule, how does the “intraocular pressure reducing action” value read?
**A.** significant intraocular pressure reducing action

**Q.** `Cl.c1cc2c3c(cncc3c1)CCN2C1CCNCC1` [Example 11] was tested. Which “intraocular pressure reducing action” value did it give?
**A.** significant intraocular pressure reducing action

**Q.** `Cl.OCCN1CCC(N2CCc3cncc4cccc2c34)CC1` [Example 12] was tested. Which “intraocular pressure reducing action” value did it give?
**A.** significant intraocular pressure reducing action

**Q.** How did the “intraocular pressure reducing action” value turn out when `Cl.OCCCN1CCC(N2CCc3cncc4cccc2c34)CC1` [Example 13] was run?
**A.** significant intraocular pressure reducing action

**Q.** For `Cl.NCCN1CCC(N2CCc3cncc4cccc2c34)CC1` [Example 14], which “intraocular pressure reducing action” value is on record?
**A.** significant intraocular pressure reducing action

**Q.** Which “intraocular pressure reducing action” value does the source give for `Cl.NCCCN1CCC(N2CCc3cncc4cccc2c34)CC1` [Example 15] here?
**A.** significant intraocular pressure reducing action

**Q.** With `Cl.N#CCN1CCC(N2CCc3cncc4cccc2c34)CC1` [Example 18] as the molecule, how does the “intraocular pressure reducing action” value read?
**A.** significant intraocular pressure reducing action

**Q.** Which “intraocular pressure reducing action” value does the source give for `Cl.N[C@H]1CC[C@H](N2CCc3cncc4cccc2c34)CC1` [Example 21] here?
**A.** significant intraocular pressure reducing action

**Q.** For `Cl.OCCN[C@H]1CC[C@H](N2CCc3cncc4cccc2c34)CC1` [Example 22], which “intraocular pressure reducing action” value is on record?
**A.** significant intraocular pressure reducing action

**Q.** With `Cl.N[C@H]1CC[C@@H](N2CCc3cncc4cccc2c34)CC1` [Example 31] as the molecule, how does the “intraocular pressure reducing action” value read?
**A.** significant intraocular pressure reducing action

**Q.** For `CC(=O)NCCCN1CCC(N2CCc3cncc4cccc2c34)CC1` [Example 47], which “intraocular pressure reducing action” value is on record?
**A.** significant intraocular pressure reducing action

**Q.** Which “intraocular pressure reducing action” value does the source give for `CN1CCC(N2CCc3cncc4cccc2c34)CC1` [Example 52] here?
**A.** significant intraocular pressure reducing action

**Q.** With `CNCCN1CCC(N2CCc3cncc4cccc2c34)CC1` [Example 57] as the molecule, how does the “intraocular pressure reducing action” value read?
**A.** significant intraocular pressure reducing action

**Q.** `Cl.Oc1ncc2c3c(cccc13)N(C1CCNCC1)CC2` [Example 62] was tested. Which “intraocular pressure reducing action” value did it give?
**A.** significant intraocular pressure reducing action

**Q.** With `Cl.OCCN1CCC(N2CCc3cnc(O)c4cccc2c34)CC1` [Example 63] as the molecule, how does the “intraocular pressure reducing action” value read?
**A.** significant intraocular pressure reducing action

**Q.** How did the “intraocular pressure reducing action” value turn out when `Cl.OCCCN1CCC(N2CCc3cnc(O)c4cccc2c34)CC1` [Example 64] was run?
**A.** significant intraocular pressure reducing action

**Q.** With `CC(=O)NCCN1CCC(N2CCc3cnc(O)c4cccc2c34)CC1` [Example 67] as the molecule, how does the “intraocular pressure reducing action” value read?
**A.** significant intraocular pressure reducing action

**Q.** Which “intraocular pressure reducing action” value does the source give for `CCC(=O)NCCN1CCC(N2CCc3cnc(O)c4cccc2c34)CC1` [Example 68] here?
**A.** significant intraocular pressure reducing action

**Q.** `CC(=O)NCCCN1CCC(N2CCc3cnc(O)c4cccc2c34)CC1` [Example 72] was tested. Which “intraocular pressure reducing action” value did it give?
**A.** significant intraocular pressure reducing action

**Q.** For `CCC(=O)NCCCN1CCC(N2CCc3cnc(O)c4cccc2c34)CC1` [Example 73], which “intraocular pressure reducing action” value is on record?
**A.** significant intraocular pressure reducing action

**Q.** With `CC(C)(C)C(=O)NCCCN1CCC(N2CCc3cnc(O)c4cccc2c34)CC1` [Example 76] as the molecule, how does the “intraocular pressure reducing action” value read?
**A.** significant intraocular pressure reducing action

**Q.** Which “intraocular pressure reducing action” value does the source give for `N[C@H]1CC[C@H](N2CCc3cnc(O)c4cccc2c34)CC1` [Example 77] here?
**A.** significant intraocular pressure reducing action

**Q.** Which “intraocular pressure reducing action” value does the source give for `Cl.OCCN[C@H]1CC[C@H](N2CCc3cnc(O)c4cccc2c34)CC1` [Example 78] here?
**A.** significant intraocular pressure reducing action

**Q.** How did the “intraocular pressure reducing action” value turn out when `Cl.OCCCN[C@H]1CC[C@H](N2CCc3cnc(O)c4cccc2c34)CC1` [Example 79] was run?
**A.** significant intraocular pressure reducing action

**Q.** `CC(=O)NCCN[C@H]1CC[C@H](N2CCc3cnc(O)c4cccc2c34)CC1.Cl` [Example 82] was tested. Which “intraocular pressure reducing action” value did it give?
**A.** significant intraocular pressure reducing action

**Q.** Which “intraocular pressure reducing action” value does the source give for `CCC(=O)NCCN[C@H]1CC[C@H](N2CCc3cnc(O)c4cccc2c34)CC1.Cl` [Example 83] here?
**A.** significant intraocular pressure reducing action

**Q.** `CCCC(=O)NCCN[C@H]1CC[C@H](N2CCc3cnc(O)c4cccc2c34)CC1.Cl` [Example 84] was tested. Which “intraocular pressure reducing action” value did it give?
**A.** significant intraocular pressure reducing action

**Q.** Which “intraocular pressure reducing action” value does the source give for `CC(=O)NCCCN[C@H]1CC[C@H](N2CCc3cnc(O)c4cccc2c34)CC1.Cl` [Example 87] here?
**A.** significant intraocular pressure reducing action

**Q.** How did the “intraocular pressure reducing action” value turn out when `CCC(=O)NCCCN[C@H]1CC[C@H](N2CCc3cnc(O)c4cccc2c34)CC1.Cl` [Example 88] was run?
**A.** significant intraocular pressure reducing action
